One data set relates to Prp-TDP43 mice. Put plainly: Mouse model of Amyotrophic Lateral Sclerosis (ALS). To be noted: 30 mg/kg once per day, oral gavage; for increase in mean CAMP amplitude compared to the vehicle controlled group: sciatic nerve.
Data set [1] in a line: Bioavailability / brain exposure in CD1 mice. It is filed as in vivo. To be noted: dose of 30 mg/kg. The method, then:
The compounds have good properties for oral dosing and readily cross the blood brain barrier. For example, in CD1 mice, Compound 9 has a maximum concentration in brain plasma of 5067 ng/ml after 30 minutes at a dose of 30 mg/kg. Compound 12 has a maximum concentration in brain plasma of 5853 ng/ml after 8 hours at a dose of 30 mg/kg.

In data set [2] the test system is C57BL/6JRj mice injured by intra-nigral injections of alpha-synuclein and CBE. Put plainly: Mouse model of Parkinson's disease (intra-nigral alpha-synuclein protofibrils plus CBE). To be noted: 30 mg/kg per os once a day. It is filed as in vivo. From the text: This model (run by Neuro-Sys SAS, France) uses C57BL/6JRj mice injured by intra-nigral injections of a solution containing protofibrils of alpha-synuclein (α-syn, precisely quantified by automatic Western Blot) and combined with pharmacological inhibition of GBA by conduritol B epoxide (CBE), in aged mice. The model mimics the main pathologies of PD: loss of dopaminergic neurons in the substantia nigra, neuroinflammation, deficits in motor coordination and synucleinopathy (α-syn aggregation). Any substance with positive effects in this model may be useful as a new therapeutic agent for the treatment or prevention of PD.
• Type of animal: C57BL/6JRj (Male) • Age: 18 months old • Supplier: Janvier Labs • Animal number: 10 mice per group • Acclimation and clinical signs: Animals arrived on site 7 days (one week) before the experiment to allow optimal acclimation.
Overview: CBE was administered along with the test compounds, starting on the day of the stereotaxic injections of the α-syn oligomer preparation.
Test compounds at specific concentrations (see below) were administered per os (gavage or drinking water). • Test compound treatment: The test compounds were solubilized (vehicle=water), aliquoted and stored at −20° C. Aliquots were thawed overnight at 4° C. and given once a day. Treatment started on the day of the stereotaxic injections of α-syn preparation (Day 0). Treatment was administrated until the last day of the experiment (Day 28; =day of dissection). • CBE dose and administration: 50 mg/kg, Intraperitoneal (i.p.), twice a day. • CBE treatment: Administration of CBE (vehicle=saline [NaCl 0.9%] started on the day of the stereotaxic injections of α-syn preparation (Day 0). Treatment was administrated until the last day of the experiment (Day 28; =day of dissection), • Untreated control: vehicle (saline; i.p.) administered twice a day, • Stereotaxic injections of α-syn oligomers: Human α-syn peptide (stock at 69 μM in water at −20° C.) was reconstituted at 50 μM in NaCl, 0.9% (final concentration). All mice in compound treated groups were subjected to surgery and received 2.5 μL of α-syn solution. Mice were anesthetized by isoflurane (4%, for induction), in an induction chamber coupled with a vaporizer and to an oxygen concentrator. Mice were placed on the stereotaxic frame. Anesthesia was maintained by isoflurane (2%) with a face mask coupled to the isoflurane vaporizer and oxygen concentrator machine. The skull was exposed and holes were drilled. The α-syn preparation was bilaterally injected into the SNpc, at the following coordinates: A-P, −0.3 mm; M-L, +0.12 mm; D-V, −0.45 mm. Depth of anesthesia and rectal temperature were verified every 5 minutes. After surgery, mice were allowed to recover before being placed back in the cage.
• i) Body mass • ii) Assessment of motor coordination: bar test and grid walking test • iii) Dopaminergic Tyrosine hydroxylase (TH)-positive neuron survival in the substantia nigra pars compacta (SNpc), i.e. a measure of the number of TH neurons in the SNpc • iv) α-syn area in TH positive neurons (a measure of the degree of aggregation of α-syn in TH positive neurons, in the SNpc)
• Overall: For overall evaluation and body mass, mice were observed daily, and body mass was monitored prior to drug administration. • Assessment of motor coordination: bar test.
In the third week (Week 3) post-surgery, motor coordination of the mice was assessed with the bar test. The principle of the test is based on the capacity of the mice to cross a horizontal bar connected to a platform (18 mm of diameter, 60 cm long). The test requires good coordination between front and hindlimbs, and good balance. Mice are placed at one extremity of the bar and need to reach a platform located at the other side of the bar. Motor coordination was studied after two training sessions, one and two days before the test. Three sessions were recorded by a video camera system. […]

In the case of `CCOc1ccc(Cl)cc1CN1CC[C@@H](CN)C1.Cl` [Compound 12, (S)-(1-(5-chloro-2-ethoxybenzyl)pyrrolidin-3-yl)methanamine hydrochloride], the “body weight compared to the vehicle group” value in the data set on Prp-TDP43 mice is given as “increase”. For the same molecule, in the data set on Prp-TDP43 mice (60 days), the mortality entry is “No mortality was observed” and the pathological clinical signs entry is “No pathological clinical sign was observed”. Besides, in the data set with Prp-TDP43 mice (at three months of age), the “decrease in mean NfL concentration (plasma) compared to the vehicle controlled group” value was determined as 54%, the “increase in mean NCV (nerve conduction velocity) compared to the vehicle controlled group” value worked out at 139%, the “increase in mean rotarod latency compared to the vehicle controlled group” value worked out at 99% and the “increase in mean CAMP amplitude compared to the vehicle controlled group” value worked out at 73%. In the data set with Prp-TDP43 mice (at two months of age), the “decrease in mean NfL concentration (plasma) compared to the vehicle controlled group” value worked out at 48%, the “increase in mean rotarod latency compared to the vehicle controlled group” value is 76% and the “increase in mean CAMP amplitude compared to the vehicle controlled group” value came out at 39%. Also, in data set [1], the “maximum concentration in brain plasma” value came to 5853 ng/mL and the “time of maximum concentration in brain plasma” value amounted to 8 h. Also, in data set [2] (week 3), the “bar test: decrease in the mean time required to cross the bar compared to the α-syn/CBE injured group” value amounted to 21%, the “bar test: reduction in the mean number of steps required to cross the bar compared to the α-syn/CBE injured group” value turned out to be 2% and the “bar test: reduction in the number of misplaced steps (failed strides) compared to the α-syn/CBE injured group” value was found to be 33%. Also, in data set [2] (week 4), the “decrease in the aggregation of α-syn in TH neurons (α-syn area) compared to the α-syn/CBE injured group” value is reported as 10%, the “grid walking test: increase in the total distance travelled during the test” value was 12%, the “grid walking test: reduction in the mean number of failures per meter (number of missed steps)” value was determined as 21% and the “increase in the number of dopaminergic TH positive neurons in the SNpc compared to the α-syn/CBE injured group” value amounted to 36%.
